US20130102631A1, “NOVEL MICROBIOCIDAL DIOXIME ETHER DERIVATIVES” (SYNGENTA CROP PROTECTION LLC, priority 2010, published 2013)

Columns and labels:
Glomerella lagenarium = Glomerella lagenarium (Colletotrichum lagenarium) / liquid culture (anthracnose); type: cell-based; settings: Colletotrichum orbiculare; at ≦200 ppm, liquid culture PDB, inhibition of growth photometrically 3-4 days after application; read-out: control of Glomerella lagenarium
Summary of the method: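 Glomerella lagenarium conidia in potato dextrose broth added to test compound supplied in DMSO in microtiter wells. Plates incubated at 24° C.; growth inhibition measured photometrically 3-4 days after application.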

[1] = test system: Thanatephorus cucumeris (Rhizoctonia solani); assay: Thanatephorus cucumeris (Rhizoctonia solani) / liquid culture (foot rot, damping-off); type: cell-based; settings: at ≦200 ppm, liquid culture PDB, inhibition of growth photometrically 3-4 days after application, read-out: control of Thanatephorus cucumeris
Procedure: Thanatephorus cucumeris (Rhizoctonia solani)/Liquid Culture (Foot Rot, Damping-Off Mycelia fragments of a newly grown liquid culture of the fungus are directly mixed into nutrient broth (PDB potato dextrose broth). After placing a DMSO solution of the test compounds into a 96-well microtiter, the nutrient broth containing the fungal material was added. The test plates were incubated at 24° C. and the inhibition of growth was determined photometrically 3-4 days after application. […]-2.508 5.561; 2.561; P.57; 2.513; 2.559; 2.558; 2.553; 2.533; 2.530; 2.526; 2.519; 2.517; 2.516; 2.514; 2.512; 2.514

[2] = test system: Monographella nivalis (Microdochium nivale); assay: Monographella nivalis (Microdochium nivale) / liquid culture (foot rot cereals); type: cell-based; settings: at ≦200 ppm, liquid culture PDB, inhibition of growth photometrically 4-5 days after application, read-out: control of Monographella nivalis
Summary of the method: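 Microdochium nivale conidia in potato dextrose broth added to compound delivered in DMSO, then incubated at 24 °C. Growth inhibition measured photometrically 4-5 days after application.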

[3] = test system: Phaeosphaeria nodorum (Septoria nodorum); assay: Phaeosphaeria nodorum (Septoria nodorum) / wheat / leaf disc preventative (glume blotch); type: in vivo; settings: Parastagonospora nodorum, foliar, wheat leaf segments cv Kanzler, inoculated 2 days after application, assessed 5-7 days after application
Summary of the method: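 Wheat cv Kanzler leaf segments on agar were sprayed with formulated compound at 200 ppm and inoculated with spores 2 days later. Incubation at 20 °C, 75% RH, 12/12 h light/dark; percent disease control versus untreated scored 5–7 days after application.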

[4] = test system: Blumeria graminis f. sp. tritici (Erysiphe graminis f. sp. tritici); assay: Blumeria graminis f. sp. tritici / wheat / leaf disc preventative (powdery mildew on wheat); type: in vivo; settings: foliar, wheat leaf segments cv. Kanzler, inoculated 1 day after application, assessed 6-8 days after application
Procedure: Blumeria graminis f. sp. tritici (Erysiphe graminis f. sp. tritici)/Wheat/Leaf Disc Preventative (Powdery Mildew on Wheat):
Wheat leaf segments cv. Kanzler were placed on agar in a 24-well plate and sprayed with the formulated test compound diluted in water at an application rate of 200 ppm. The leaf disks were inoculated by shaking powdery mildew infected plants above the test plates 1 day after application. The inoculated leaf disks were incubated at 20° C. and 60% relative humidity under a light regime of 24 h darkness followed by 12 h/12 h (dark/light) in a climate chamber and the activity of a compound was assessed as percent disease control compared to untreated when an appropriate level of disease damage appears on untreated check leaf segments (6-8 days after application). The following compounds gave at least 80% control of Blumeria graminis: E/E-2.168, E/E-2.474, E/E-2.002; 5.561; 2.561; E/E-2.208; 2.513; 2.559; 2.557; 2.556; 2.555; 2.374; 2.552; 2.537; 2.533; 2.530; 2.528; 2.526; 2.519; 2.510; 2.516; 2.514; E/E-5.167; E/E-3.002; 2.512; 2.511

[5] = test system: Mycosphaerella graminicola (Septoria tritici); assay: Mycosphaerella graminicola (Septoria tritici) / liquid culture (Septoria blotch); type: cell-based; settings: Zymoseptoria tritici; at ≦200 ppm, liquid culture PDB, inhibition of growth photometrically 4-5 days after application; read-out: control of Mycosphaerella graminicola
Gaeumannomyces graminis = Gaeumannomyces graminis / liquid culture (take-all of cereals); type: cell-based; settings: at ≦200 ppm, liquid culture PDB, inhibition of growth photometrically 4-5 days after application, read-out: control of Gaeumannomyces graminis
Summary of the method: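 Mycelial fragments of the fungus in potato dextrose broth were added to wells containing compound in DMSO. Plates were incubated at 24° C, and growth inhibition was read photometrically 4-5 days after application.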

[6] = test system: Mycosphaerella arachidis (Cercospora arachidicola); assay: Mycosphaerella arachidis (Cercospora arachidicola) / liquid culture (early leaf spot); type: cell-based; settings: at ≦200 ppm, liquid culture PDB, inhibition of growth photometrically 4-5 days after application, read-out: control of Mycosphaerella arachidis
Summary of the method: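 Cryostored Cercospora arachidicola conidia were mixed into potato dextrose broth and added to test compound in DMSO. Incubation was at 24° C. Growth inhibition was read photometrically 4-5 days after application.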

CCOC(=O)c1ccc(C)c(/C(C)=N/OCC(C)(C)CO/N=C2\CCCc3ccc(C)nc32)n1 [Compound 2.526]
≥ 80%: inhibition of growth at up to 200 µg/mL (Glomerella lagenarium) | inhibition of growth at up to 200 µg/mL [1] | inhibition of growth at up to 200 µg/mL [2] | pest or weed control at 200 ppm [3] | pest or weed control at 200 ppm [4] | inhibition of growth at up to 200 µg/mL [5] | inhibition of growth at up to 200 µg/mL (Gaeumannomyces graminis) | inhibition of growth at up to 200 µg/mL [6]
